From patent US11161842B2, “Bifunctional molecules for degradation of EGFR and methods of use” (Dana-Farber Cancer Institute, Inc., priority 2016, dated 2021)

Experiments:
[1] = molecular target: T1, T790M/L858R transformed Ba/F3 cells (Homo sapiens, UniProt P00533, T790M/L858R, cells depend on it); assay: Ba/F3 cell proliferation (MTS) assay, T790M/L858R; assay type: cell-based, murine; conditions: for EC50: antiproliferative activity; for % control: compound at 1 μM, inhibition of growth as percent of control
T1 construct: The constructs were shuttled into the retroviral vector JP 1540 using the BD Creator™ System (BD Biosciences)
T1 sequence (P00533 whole entry T790M/L858R): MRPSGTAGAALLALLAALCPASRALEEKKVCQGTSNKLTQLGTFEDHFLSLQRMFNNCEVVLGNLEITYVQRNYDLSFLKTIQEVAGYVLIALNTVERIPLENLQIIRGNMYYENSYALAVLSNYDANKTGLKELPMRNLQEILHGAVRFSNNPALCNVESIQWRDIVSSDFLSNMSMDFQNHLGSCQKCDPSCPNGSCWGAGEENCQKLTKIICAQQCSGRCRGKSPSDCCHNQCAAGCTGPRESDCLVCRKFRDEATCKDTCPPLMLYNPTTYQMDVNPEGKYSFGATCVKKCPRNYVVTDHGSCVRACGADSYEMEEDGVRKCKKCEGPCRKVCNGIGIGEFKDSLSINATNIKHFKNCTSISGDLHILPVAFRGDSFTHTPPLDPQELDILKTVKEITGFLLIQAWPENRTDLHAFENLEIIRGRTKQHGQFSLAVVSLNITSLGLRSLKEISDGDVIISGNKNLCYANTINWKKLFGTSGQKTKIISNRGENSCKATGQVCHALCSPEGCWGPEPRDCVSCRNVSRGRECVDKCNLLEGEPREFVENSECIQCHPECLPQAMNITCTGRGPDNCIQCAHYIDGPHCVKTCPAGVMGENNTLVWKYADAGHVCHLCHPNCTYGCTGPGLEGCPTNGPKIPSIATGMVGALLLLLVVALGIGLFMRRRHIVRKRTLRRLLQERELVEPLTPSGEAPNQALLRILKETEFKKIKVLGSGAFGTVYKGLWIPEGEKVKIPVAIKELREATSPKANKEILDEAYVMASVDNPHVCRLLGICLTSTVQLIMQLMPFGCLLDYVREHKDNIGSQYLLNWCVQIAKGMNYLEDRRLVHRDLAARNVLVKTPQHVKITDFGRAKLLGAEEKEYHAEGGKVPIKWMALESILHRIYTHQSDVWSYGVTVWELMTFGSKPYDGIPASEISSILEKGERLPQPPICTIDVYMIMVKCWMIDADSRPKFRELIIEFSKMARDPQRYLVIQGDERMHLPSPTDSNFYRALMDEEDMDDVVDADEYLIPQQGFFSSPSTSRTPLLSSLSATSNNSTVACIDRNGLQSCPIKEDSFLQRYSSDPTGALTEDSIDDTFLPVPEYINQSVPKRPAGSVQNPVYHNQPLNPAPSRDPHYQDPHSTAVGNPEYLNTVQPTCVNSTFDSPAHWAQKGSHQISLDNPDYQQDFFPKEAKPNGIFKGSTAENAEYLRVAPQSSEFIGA
Text: The EGFR mutant L858R, Del E746_A750, L858R/T790M, DelE746_A750/T790M, L858R/T790M/C797S and Del/T790M/C797S Ba/F3 cells have been previously described (Zhou, W., Ercan, D., Chen, L., Yun, C. H., Li, D., Capelletti, M., Cortot, A. B., Chirieac, L., Iacob, R. E., Padera, R., et al. “Novel mutant-selective EGFR kinase inhibitors against EGFR T790M,” Nature 462, (2009), 1070-1074). All cell lines were maintained in RPMI 1640 (Cellgro; Mediatech Inc., Herndon, Calif.) supplemented with 10% FBS 100 units/mL penicillin, 100 units/mL streptomycin, and 2 mM glutamine. L858R cells were maintained in ACL-4 media (Invitrogen, Carlsbad, Calif.) supplemented with 5% FBS, 100 units/mL penicillin, 100 units/mL streptomycin, and 2 mM glutamine. The EGFR I941R mutation was introduced via site directed mutagenesis using the Quick Change Site-Directed Mutagenesis kit (Stratagene; La Jolla, Calif.) according to the manufacturer's instructions. All constructs were confirmed by DNA sequencing. The constructs were shuttled into the retroviral vector JP 1540 using the BD Creator™ System (BD Biosciences). Ba/F3 cells were infected with retrovirus and according to standard protocols, as described previously (Zhou et al, Nature 2009). Stable clones were obtained by selection in puromycin (2 μg/ml).
Growth and inhibition of growth was assessed by MTS assay and was performed according to previously established methods (Zhou et al., Nature 2009). The MTS assay is a colorimetric method for determining the number of viable cells that is based on the bioreduction of MTS by cells to a formazan product that is soluble in cell culture medium and can be detected spectrophotometrically. Ba/F3 cells of different EGFR genotypes were exposed to treatment for 72 hours and the number of cells used per experiment determined empirically and has been previously established (Zhou et al., Nature 2009). All experimental points were set up in six wells and all experiments were repeated at least three times. […] The curves were fitted using a non-linear regression model with a sigmoidal dose response.
Compounds of Table 1 were tested at a concentration of 1 μM against T790M/L858R transformed Ba/F3 cells. The assay, as described in Example 42, measured inhibition of growth as a percent of the inhibitory activity of the control. In Table 1, A is 0<% control <25, B is 25<% control <50, C is 50<% control <75, and D is 75<% control.
Compounds of Table 2 were tested in a T790M/L858R transformed Ba/F3 cell line as described in Example 42 and the EC50 values were calculated. In Table 2, A is EC50<500 nM, B is 500 nM<EC50<1000 nM, C is 1000 nM<EC50<5000 nM, and D is 5000 nM<EC50.

[2] = molecular target: T2, T790M/L858R/C797S transformed Ba/F3 cells (Homo sapiens, UniProt P00533, T790M/C797S/L858R, cells depend on it); assay: Ba/F3 cell proliferation (MTS) assay, T790M/L858R/C797S; assay type: cell-based, murine; conditions: antiproliferative activity
T2 construct: The constructs were shuttled into the retroviral vector JP 1540 using the BD Creator™ System (BD Biosciences)
T2 sequence (P00533 whole entry T790M/C797S/L858R): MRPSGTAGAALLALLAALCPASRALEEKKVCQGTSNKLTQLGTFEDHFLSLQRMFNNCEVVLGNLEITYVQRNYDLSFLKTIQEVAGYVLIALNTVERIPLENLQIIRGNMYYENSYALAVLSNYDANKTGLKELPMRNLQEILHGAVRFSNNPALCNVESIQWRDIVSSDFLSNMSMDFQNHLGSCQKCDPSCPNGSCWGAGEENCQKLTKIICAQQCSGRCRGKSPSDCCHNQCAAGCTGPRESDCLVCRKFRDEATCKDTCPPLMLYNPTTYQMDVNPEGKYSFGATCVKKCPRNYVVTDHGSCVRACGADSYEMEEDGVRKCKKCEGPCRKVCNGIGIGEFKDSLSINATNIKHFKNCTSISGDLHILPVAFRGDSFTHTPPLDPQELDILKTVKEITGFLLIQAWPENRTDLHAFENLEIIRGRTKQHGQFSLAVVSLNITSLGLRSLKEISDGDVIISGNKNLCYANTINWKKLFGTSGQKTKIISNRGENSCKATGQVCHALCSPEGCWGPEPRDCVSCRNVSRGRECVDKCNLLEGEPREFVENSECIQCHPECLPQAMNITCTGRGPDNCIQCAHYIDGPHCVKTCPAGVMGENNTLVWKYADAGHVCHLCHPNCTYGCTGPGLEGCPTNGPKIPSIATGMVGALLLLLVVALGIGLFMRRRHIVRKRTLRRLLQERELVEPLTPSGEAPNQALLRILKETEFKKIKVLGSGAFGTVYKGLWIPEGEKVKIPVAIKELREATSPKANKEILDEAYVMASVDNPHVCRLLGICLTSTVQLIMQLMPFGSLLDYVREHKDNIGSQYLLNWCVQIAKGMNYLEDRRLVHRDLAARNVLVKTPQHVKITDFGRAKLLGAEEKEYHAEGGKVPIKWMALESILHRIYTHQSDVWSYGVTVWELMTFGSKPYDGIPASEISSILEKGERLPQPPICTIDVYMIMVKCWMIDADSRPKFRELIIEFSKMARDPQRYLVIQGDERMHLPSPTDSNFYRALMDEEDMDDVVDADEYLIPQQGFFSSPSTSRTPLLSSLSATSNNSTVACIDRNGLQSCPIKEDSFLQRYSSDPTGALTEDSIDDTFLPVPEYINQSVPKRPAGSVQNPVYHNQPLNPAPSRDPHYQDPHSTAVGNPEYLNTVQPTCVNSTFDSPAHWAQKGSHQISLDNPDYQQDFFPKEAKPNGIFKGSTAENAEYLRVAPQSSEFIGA

| Compound | EC50 [1] | % control [1] | EC50 [2] |
| --- | --- | --- | --- |
| O=C1CCC(N2C(=O)c3cccc(NCCOCCOCCOCCN4CCN(c5ccc(-c6ccc7c(c6)C(=O)N(C(C(=O)Nc6nccs6)c6ccccc6O)C7)cn5)CC4)c3C2=O)C(=O)N1 (centres unmarked) [Compound I-14, 2-(6-(6-(4-(2-(2-(2-(2-((2-(2,6-Dioxopiperidin-3-yl)-1,3-dioxoisoindolin-4-yl)amino)ethoxy)ethoxy)ethoxy)ethyl)piperazin-1-yl)pyridin-3-yl)-1-oxoisoindolin-2-yl)-2-(2-hydroxyphenyl)-N-(thiazol-2-yl)acetamide] | 1000 to 5000 nM | D (D is 75<% control) | > 5000 nM |
| O=C1CCC(N2C(=O)c3cccc(NC4CN(CCOCCOCCN5CCN(c6ccc(-c7ccc8c(c7)C(=O)N(C(C(=O)Nc7nccs7)c7ccccc7)C8)cc6)CC5)C4)c3C2=O)C(=O)N1 (centres unmarked) [Compound I-15, 2-(6-(4-(4-(2-(2-(2-(3-((2-(2,6-Dioxopiperidin-3-yl)-1,3-dioxoisoindolin-4-yl)amino)azetidin-1-yl)ethoxy)ethoxy)ethyl)piperazin-1-yl)phenyl)-1-oxoisoindolin-2-yl)-2-phenyl-N-(thiazol-2-yl)acetamide] | 1000 to 5000 nM | C (C is 50<% control <75) | > 5000 nM |
| O=C1CCC(N2C(=O)c3cccc(NC4CN(CCOCCOCCOCCN5CCN(c6ccc(-c7ccc8c(c7)C(=O)N(C(C(=O)Nc7nccs7)c7ccccc7)C8)cc6)CC5)C4)c3C2=O)C(=O)N1 (centres unmarked) [Compound I-16, 2-(6-(4-(4-(2-(2-(2-(2-(3-((2-(2,6-Dioxopiperidin-3-yl)-1,3-dioxoisoindolin-4-yl)amino)azetidin-1-yl)ethoxy)ethoxy)ethoxy)ethyl)piperazin-1-yl)phenyl)-1-oxoisoindolin-2-yl)-2-phenyl-N-(thiazol-2-yl)acetamide] | 1000 to 5000 nM | C (C is 50<% control <75) | > 5000 nM |
| O=C1CCC(N2C(=O)c3cccc(NCCOCCOCCOCCN4CCN(c5ccc(-c6ccc7c(c6)C(=O)N(C(C(=O)Nc6nccs6)c6ccccc6)C7)cc5)CC4)c3C2=O)C(=O)N1 (centres unmarked) [Compound I-18, 2-(6-(4-(4-(2-(2-(2-(2-((2-(2,6-Dioxopiperidin-3-yl)-1,3-dioxoisoindolin-4-yl)amino)ethoxy)ethoxy)ethoxy)ethyl)piperazin-1-yl)phenyl)-1-oxoisoindolin-2-yl)-2-phenyl-N-(thiazol-2-yl)acetamide] | < 500 nM | A (A is 0<% control <25) | < 500 nM |
| O=C1CCC(N2C(=O)c3cccc(NCCOCCOCCOCCOCCN4CCN(c5ccc(-c6ccc7c(c6)C(=O)N(C(C(=O)Nc6nccs6)c6ccccc6)C7)cc5)CC4)c3C2=O)C(=O)N1 (centres unmarked) [Compound I-20, 2-(6-(4-(4-(14-((2-(2,6-Dioxopiperidin-3-yl)-1,3-dioxoisoindolin-4-yl)amino)-3,6,9,12-tetraoxatetradecyl)piperazin-1-yl)phenyl)-1-oxoisoindolin-2-yl)-2-phenyl-N-(thiazol-2-yl)acetamide] | < 500 nM | A (A is 0<% control <25) | < 500 nM |
| O=C1CCC(N2C(=O)c3cccc(NCCOCCOCCOCCN4CCN(c5ccc(-c6ccc7c(c6)C(=O)N(C(C(=O)Nc6nccs6)c6ccccc6)C7)cn5)CC4)c3C2=O)C(=O)N1 (centres unmarked) [Compound I-22, 2-(6-(6-(4-(2-(2-(2-(2-((2-(2,6-Dioxopiperidin-3-yl)-1,3-dioxoisoindolin-4-yl)amino)ethoxy)ethoxy)ethoxy)ethyl)piperazin-1-yl)pyridin-3-yl)-1-oxoisoindolin-2-yl)-2-phenyl-N-(thiazol-2-yl)acetamide] | < 500 nM | A (A is 0<% control <25) | 500 to 1000 nM |
| Cc1ncsc1-c1ccc([C@H](C)NC(=O)[C@@H]2C[C@@H](O)CN2C(=O)[C@@H](NC(=O)CCOCCOCCOCCN2CCN(c3ccc(-c4ccc5c(c4)C(=O)N(C(C(=O)Nc4nccs4)c4ccccc4)C5)cn3)CC2)C(C)(C)C)cc1 (stereo partly drawn) [Compound I-23, (2S,4R)-1-((14S)-14-(tert-Butyl)-12-oxo-1-(4-(5-(3-oxo-2-(2-oxo-1-phenyl-2-(thiazol-2-ylamino)ethyl)isoindolin-5-yl)pyridin-2-yl)piperazin-1-yl)-3,6,9-trioxa-13-azapentadecan-15-oyl)-4-hydroxy-N—((S)-1-(4-(4-methylthiazol-5-yl)phenyl)ethyl)pyrrolidine-2-carboxamide] | > 5000 nM | D (D is 75<% control) | > 5000 nM |
| Cc1ncsc1-c1ccc([C@H](C)NC(=O)[C@@H]2C[C@@H](O)CN2C(=O)[C@@H](NC(=O)CCOCCOCCN2CCN(c3ccc(-c4ccc5c(c4)C(=O)N(C(C(=O)Nc4nccs4)c4ccccc4)C5)cn3)CC2)C(C)(C)C)cc1 (stereo partly drawn) [Compound I-24, (2S,4R)-1-((2S)-3,3-Dimethyl-2-(3-(2-(2-(4-(5-(3-oxo-2-(2-oxo-1-phenyl-2-(thiazol-2-ylamino)ethyl)isoindolin-5-yl)pyridin-2-yl)piperazin-1-yl)ethoxy)ethoxy)propanamido)butanoyl)-4-hydroxy-N—((S)-1-(4-(4-methylthiazol-5-yl)phenyl)ethyl)pyrrolidine-2-carboxamide] | > 5000 nM |  | > 5000 nM |
| O=C1CCC(N2C(=O)c3cccc(NCCOCCOCCC(=O)N4CCN(c5ccc(-c6ccc7c(c6)C(=O)N(C(C(=O)Nc6nccs6)c6cc(F)ccc6O)C7)cc5)CC4)c3C2=O)C(=O)N1 (centres unmarked) [Compound I-28, 2-(6-(4-(4-(3-(2-(2-((2-(2,6-dioxopiperidin-3-yl)-1,3-dioxoisoindolin-4-yl)amino)ethoxy)ethoxy)propanoyl)piperazin-1-yl)phenyl)-1-oxoisoindolin-2-yl)-2-(5-fluoro-2-hydroxyphenyl)-N-(thiazol-2-yl)acetamide] | 500 to 1000 nM | A (A is 0<% control <25) | > 5000 nM |
| O=C1CCC(N2C(=O)c3cccc(NCCOCCC(=O)N4CCN(c5ccc(-c6ccc7c(c6)C(=O)N(C(C(=O)Nc6nccs6)c6cc(F)ccc6O)C7)cc5)CC4)c3C2=O)C(=O)N1 (centres unmarked) [Compound I-29, 2-(6-(4-(4-(3-(2-((2-(2,6-dioxopiperidin-3-yl)-1,3-dioxoisoindolin-4-yl)amino)ethoxy)propanoyl)piperazin-1-yl)phenyl)-1-oxoisoindolin-2-yl)-2-(5-fluoro-2-hydroxyphenyl)-N-(thiazol-2-yl)acetamide] | 500 to 1000 nM | A (A is 0<% control <25) | > 5000 nM |
| O=C1CCC(N2C(=O)c3cccc(NCCOCCOCCN4CCN(c5ccc(-c6ccc7c(c6)C(=O)N(C(C(=O)Nc6nccs6)c6cc(F)ccc6O)C7)cc5)CC4)c3C2=O)C(=O)N1 (centres unmarked) [Compound I-33] | < 500 nM | A (A is 0<% control <25) | 1000 to 5000 nM |
